Data published in US20130005568A1, “SAFENED HERBICIDAL MIXTURES” (E.I. DU PONT DE NEMOURS AND COMPANY, priority 2011, published 2013).

Columns and labels:
[1] = tested on: Pioneer 39K40 hybrid maize; assay: Test A: visual plant response rating, postemergence herbicide treatments alone and with Compound 1; type: in vivo, Zea mays L. spp. indentata Sturt.; settings: Compound 1 alone 125 g ai/ha; Test A
Method: (§1) For all of the following biological tests, plant response ratings were based on a 0-100 scale where zero is growth equivalent to that of untreated plants (no plant response) and 100 represents no additional growth occurring after herbicide treatment.
Pioneer 39K40 hybrid maize used in this test (and also Tests B and C) is particularly sensitive to herbicides that inhibit the acetohydroxy acid synthase enzyme. Herbicide mixtures were dissolved/dispersed in a non-phytotoxic liquid carrier and were sprayed postemergence to Pioneer 39K40 hybrid maize (Zea mays L. spp. indentata Sturt.) in the third collar growth stage (extended leaf height was 50-60 cm). Treated plants were grown under greenhouse conditions for two weeks before visual evaluations of plant responses were recorded.

Annual bluegrass = assay: Test G: turf grass and weed postemergence plant response rating; type: in vivo, Poa annua L.; settings: Compound 1 alone 125 g ai/ha; Test G plants
Excerpt: as §1
(§2) Plants of the turf grass species: zoysia (Zoysia japonica Steud.), bermudagrass (Cynodon dactylon (L.) Pers.), tall fescue (Festuca arundinacea Shreib.), creeping bentgrass (Agrostis stoonoifera L.), perennial ryegrass (Lolium perenne L.) and hard fescue (Festuca species) were grown under greenhouse conditions for four months. Plants were clipped as needed to plant heights of 5-10 cm. Weeds typically found in turf: annual bluegrass (Poa annua L.), common chickweed (Stellaria media (L.) Vill.), large crabgrass (Digitaria sanguinales (L.) Scop.), dandelion (Taraxacum officinale Weber in Wiggers), goosegrass (Eleusine indica (L.) Gaertn.), henbit (Lamium amplexicaule L.), venice mallow (Hibiscus trionium L.) and purple nutsedge (Cyperus rotundus L.) were also grown under greenhouse conditions so that plants were 5-20 cm tall when they were treated. Herbicide mixtures were formulated, dissolved/dispersed in water containing 0.25% non-ionic surfactant, and sprayed postemergence to these turf grasses and weeds. Treated plants were grown under greenhouse conditions for three weeks before visual evaluations of plant responses were recorded.

Tall fescue = assay: as above; type: in vivo, Festuca arundinacea Shreib.; settings: Compound 1 alone 125 g ai/ha; Test G plants
Excerpt: as §1, §2

lambsquarters [2] = assay: Test I: postemergence plant response rating; type: in vivo, Chenopodium album L.; settings: Compound 1 alone 125 g ai/ha; Test I plants
Excerpt: as §1
(§3) Herbicide mixtures were formulated, dissolved/dispersed in water containing 0.25% non-ionic surfactant, and sprayed postemergence to the crop: soybean (Glycine max (L.) Merr.) at the 2-leaf growth stage and to weeds: lambsquarters (Chenopodium album L.) and velvetleaf (Abutilon theophrasti Medik.). Weed species were 5-10 cm tall when treated. Treated plants were grown under greenhouse conditions for two weeks before visual evaluations of plant responses were recorded.

Purple nutsedge = assay: Test G: turf grass and weed postemergence plant response rating; type: in vivo, Cyperus rotundus L.; settings: Compound 1 alone 125 g ai/ha; Test G plants
Excerpt: as §1, §2

Chickweed = assay: as above; type: in vivo, Stellaria media (L.) Vill.; settings: Compound 1 alone 125 g ai/ha; Test G plants
Excerpt: as §1, §2

blackgrass = assay: Test E: postemergence plant response rating; type: in vivo, Alopecurus myosuroides Huds.; settings: Compound 1 alone 125 g ai/ha; Test E plants
Excerpt: as §1
(§4) Herbicide mixtures were formulated, dissolved/dispersed in water containing 0.25% non-ionic surfactant, sprayed postemergence to the crops: winter wheat (Triticum aestivum L.), spring wheat (Triticum aestivum L.), winter barley (Hordeum vulgare L.) and spring barley (Hordeum vulgare L.), and the weeds: blackgrass (Alopecurus myosuroides Huds.), lambsquarters (Chenopodium album L.) and pigweed (Amaranthus retroflexus L.). Treated plants were grown under greenhouse conditions for two weeks before visual evaluations of plant responses were recorded.

winter barley [3] = assay: Test E: postemergence plant response rating; type: in vivo, Hordeum vulgare L.; settings: Compound 1 alone 125 g ai/ha; Test E plants
Excerpt: as §1, §4

spring barley = assay: Test E: postemergence plant response rating; type: in vivo, Hordeum vulgare L.; settings: Compound 1 alone 125 g ai/ha; Test E plants
Excerpt: as §1, §4

Large crabgrass = assay: Test G: turf grass and weed postemergence plant response rating; type: in vivo, Digitaria sanguinales (L.) Scop.; settings: Compound 1 alone 125 g ai/ha; Test G plants
Excerpt: as §1, §2

pigweed = assay: Test E: postemergence plant response rating; type: in vivo, Amaranthus retroflexus L.; settings: Compound 1 alone 125 g ai/ha; Test E plants
Excerpt: as §1, §4

Dandelion = assay: Test G: turf grass and weed postemergence plant response rating; type: in vivo, Taraxacum officinale Weber in Wiggers; settings: Compound 1 alone 125 g ai/ha; Test G plants
Excerpt: as §1, §2

soybean = assay: Test I: postemergence plant response rating; type: in vivo, Glycine max (L.) Merr.; settings: Compound 1 alone 125 g ai/ha; Test I plants
Excerpt: as §1, §3

[4] = tested on: Pioneer 39K40 hybrid maize; assay: Test B: visual plant response rating, postemergence herbicides with Compound 1 rate series; type: in vivo, Zea mays L. spp. indentata Sturt.; settings: Compound 1 alone 125 g ai/ha; Test B
Method: as §1
Herbicide mixtures were dissolved/dispersed in a non-phytotoxic liquid carrier and were sprayed postemergence to Pioneer 39K40 hybrid maize (Zea mays L. spp. indentata Sturt.) in the third collar growth stage (extended leaf height was 50-60 cm). Treated plants were grown under greenhouse conditions for two weeks before visual evaluations of plant responses were recorded.

winter barley [5] = assay: Test F: preemergence plant response rating; type: in vivo, Hordeum vulgare L.; settings: Compound 1 alone 125 g ai/ha; Test F plants
Excerpt: as §1
Herbicide mixtures were formulated, dissolved/dispersed in water, and sprayed preemergence to the crops: winter wheat (Triticum aestivum L.) and winter barley (Hordeum vulgare L.), and the weed: blackgrass (Alopecurus myosuroides Huds). Treated plants were grown under greenhouse conditions for three weeks before visual evaluations of plant responses were recorded.

Surinam grass = assay: Test K: pasture grass postemergence plant response rating, field conditions; type: in vivo, Brachiaria decumbens Stapf; settings: Compound 1 alone 140 g ai/ha; Test K plants
Excerpt: as §1
Herbicide mixtures were formulated, dissolved/dispersed in water containing 0.25% non-ionic surfactant, and sprayed postemergence to the pasture grasses: Surinam grass (Brachiaria decumbens Stapf), palisade grass (Brachiaria brizantha (Hochst. ex A. Rich) Stapf) and Alexandergrass (Brachiaria plantaginea (Link) A. S. Hitchc.) approximately 10-30 cm tall (extended leaf height). This test was conducted under field conditions. Visual evaluations of plant responses were recorded four weeks after the plants were treated.

lambsquarters [6] = assay: Test E: postemergence plant response rating; type: in vivo, Chenopodium album L.; settings: Compound 1 alone 125 g ai/ha; Test E plants
Excerpt: as §1, §4

Measured: injury, Compound 1 alone

Cc1ccccc1S(=O)(=O)NC(N)=O [Compound 1, N-(aminocarbonyl)-2-methylbenzenesulfonamide]
no injury: all assays above
